# Results: ChEMBL document CHEMBL6121047, “Design, Synthesis, and Evaluation of Selective PDE4 Inhibitors for the Therapy of Pulmonary Injury” (J Med Chem, 2025)
# Activity calls are given as the source filed them. The rule behind the calls is not given here.
# Columns and labels:
# [1] = target: 3',5'-cyclic-AMP phosphodiesterase 4B (Homo sapiens, UniProt Q07343); test: Inhibition of recombinant full length PDE4B (unknown origin) using FAM-cAMP as substrate at 1 uM preincubated with compound for compound for 15 mins followed by substrate addition and measured after 30 mins by Envision multilabel reader analysis relative to control; settings: time 45.0 min
# RAW264.7 = test: Cytotoxicity against mouse RAW264.7 cells assessed as reduction in cell viability incubated for 24 hrs by CCK-8 assay; format: toxicity, cell-based; settings: raw264.7, 24 h
# HepG2 = test: Cytotoxicity against human HepG2 cells assessed as reduction in cell viability incubated for 24 hrs by CCK-8 assay; format: toxicity, cell-based; settings: hepg2, 24 h
# HEK-293T = test: Cytotoxicity against human HEK293T cells assessed as reduction in cell viability incubated for 24 hrs by CCK-8 assay; format: toxicity, cell-based; set-up: concentration or dose not given beside the values
# Mus musculus [2] = test: Antifibrotic activity against LPS-induced acute lung injury male BALB/c mouse model assessed as decrease in collagen deposition at 4 mg/kg administered once a day via gavage for 7 days followed by LPS stimulation and measured after 24 hrs by masson staining based microscopic analysis; format: functional, organism-based; settings: time 192.0 hrs
# Mus musculus [3] = test: Anti-inflammatory activity against LPS-induced acute lung injury male BALB/c mouse model assessed as relaxation of alveolar in lung at 4 mg/kg administered once a day via gavage for 7 days followed by LPS stimulation and measured after 24 hrs by H and E staining based microscopic analysis; format: functional, organism-based; settings: time 192.0 hrs
# Mus musculus [4] = test: (§1) Anti-inflammatory activity against cigarette-smoke/LPS-induced COPD male C57BL/6 mouse model assessed as reduction in TNF-alpha level in BALF at 5 mg/kg pretreated with cigarette smoke exposure for 21 weeks with subsequent LPS induction twice on the first and 15th day followed by compound administration every day via gavage for 4 weeks; format: functional, organism-based
# Mus musculus [5] = test: Anti-inflammatory activity against LPS-induced acute lung injury male BALB/c mouse model assessed as restoration of alveolar cavities in lung at 4 mg/kg administered once a day via gavage for 7 days followed by LPS stimulation and measured after 24 hrs by H and E staining based microscopic analysis; format: functional, organism-based; settings: time 192.0 hrs
# Mus musculus [6] = test: as §1, with “reduction in bronchiole thickness at 5” for “reduction in TNF-alpha level in BALF at 5”, “4 weeks by H and E staining based microscopic analysis” for “4 weeks”; format: functional, organism-based
# Mus musculus [7] = test: Anti-inflammatory activity against cigarette-smoke/LPS-induced COPD male C57BL/6 mouse model assessed as decrease in collagen formation at 5 mg/kg pretreated with cigarette smoke exposure for 21 weeks with subsequent LPS induction twice on the first and 15th day followed by compound administration every day via gavage for 4 weeks by masson staining based microscopic analysis; format: functional, organism-based
# Mus musculus [8] = test: as §1, with “IL-6” for “TNF-alpha”; format: functional, organism-based
# Mus musculus [9] = test: Anti-inflammatory activity against LPS-induced acute lung injury male BALB/c mouse model assessed as restoration of alveolar septa in lung at 4 mg/kg administered once a day via gavage for 7 days followed by LPS stimulation and measured after 24 hrs by H and E staining based microscopic analysis; format: functional, organism-based; settings: time 192.0 hrs
# Mus musculus [10] = test: as §1, with “MMP9” for “TNF-alpha”; format: functional, organism-based
# Mus musculus [11] = test: Anti-inflammatory activity against LPS-induced acute lung injury male BALB/c mouse model assessed as enlarged bronchiole tubes in lung at 4 mg/kg administered once a day via gavage for 7 days followed by LPS stimulation and measured after 24 hrs by H and E staining based microscopic analysis; format: functional, organism-based; settings: time 192.0 hrs
# [12] = Inhibition of PDE3 (unknown origin); set-up: species or system Homo sapiens
# Phosphodiesterase 4 = Phosphodiesterase 4 (Homo sapiens, UniProt P27815+Q08499+Q07343+Q08493); test: Inhibition of PDE4 (unknown origin); format: protein assay
# Chain of 3',5'-cyclic-AMP phosphodiesterase 4B (Q07343 whole entry): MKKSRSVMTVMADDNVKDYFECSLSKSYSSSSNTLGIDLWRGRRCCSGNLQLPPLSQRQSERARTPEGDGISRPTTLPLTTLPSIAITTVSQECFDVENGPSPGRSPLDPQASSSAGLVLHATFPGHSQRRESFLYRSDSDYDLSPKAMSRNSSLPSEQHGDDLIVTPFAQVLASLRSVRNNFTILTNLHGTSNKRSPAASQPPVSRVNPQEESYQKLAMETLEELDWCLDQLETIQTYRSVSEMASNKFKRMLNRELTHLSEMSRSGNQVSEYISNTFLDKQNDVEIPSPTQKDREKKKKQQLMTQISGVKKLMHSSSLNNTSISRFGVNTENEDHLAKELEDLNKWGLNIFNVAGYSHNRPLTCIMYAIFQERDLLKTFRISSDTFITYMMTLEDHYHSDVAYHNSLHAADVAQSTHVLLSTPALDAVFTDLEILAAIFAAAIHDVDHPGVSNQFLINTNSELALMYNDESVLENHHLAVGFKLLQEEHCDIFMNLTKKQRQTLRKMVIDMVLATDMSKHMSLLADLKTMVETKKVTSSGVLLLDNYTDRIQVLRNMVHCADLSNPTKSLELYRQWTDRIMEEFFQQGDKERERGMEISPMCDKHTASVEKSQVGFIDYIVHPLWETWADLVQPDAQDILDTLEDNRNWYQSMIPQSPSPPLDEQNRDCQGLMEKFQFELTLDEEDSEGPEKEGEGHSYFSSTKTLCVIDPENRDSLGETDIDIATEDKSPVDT
Compound,inhibition [1] [%],also measured
FC(F)Oc1ccc(-c2nc3cc(-c4ccncc4)ccc3[nH]2)cc1OCC1CC1,81.4,–
O=C(O)c1ccc(NNC(=O)c2cccc3[nH]c(-c4ccc(OC(F)F)c(OCC5CC5)c4)nc23)cc1,96.2,Activity (HepG2): Non-toxic; Activity (RAW264.7): Non-toxic
COc1ccc(-c2nc3cc(C(=O)Nc4ccc5ncsc5c4)ccc3[nH]2)cc1OCC1CC1,49.2,–
COc1ccc(-c2nc3cc(C(=O)NCc4ccc(F)cc4F)ccc3[nH]2)cc1OCC1CC1,23.3,–
O=C(NCc1c(F)cc(F)cc1F)c1cccc2[nH]c(-c3ccc(OC(F)F)c(OC(F)F)c3)nc12,73.3,–
N#Cc1ccc(NNC(=O)c2ccc3[nH]c(-c4ccc(OC(F)F)c(OCC5CC5)c4)nc3c2)cc1,76.2,–
O=C(Nc1ccc2ncsc2c1)c1cccc2[nH]c(-c3ccc(OC(F)F)c(OC(F)F)c3)nc12,70.2,–
O=C(NCC1CCOCC1)c1cccc2[nH]c(-c3ccc(OC(F)F)c(OCC4CC4)c3)nc12,94.6,–
COc1ccc(-c2nc3cc(C(=O)NCc4ncccn4)ccc3[nH]2)cc1OCC1CC1,42.5,–
COc1ccc(-c2ccc3[nH]c(-c4ccc(OC(F)F)c(OCC5CC5)c4)nc3c2)cc1OC,80.9,–
O=C(ON1C(=O)CCC1=O)c1cccc2[nH]c(-c3ccc(OC(F)F)c(OCC4CC4)c3)nc12,91.5,–
O=C(Nc1c(Cl)cncc1Cl)c1ccc(OC(F)F)c(OCC2CC2)c1,–,Activity (Mus musculus [2]): Active; Activity (Mus musculus [3]): Active; Activity (Mus musculus [4]): Active; Activity (Mus musculus [5]): Active; Activity (Mus musculus [6]): Active; Activity (Mus musculus [7]): Active; Activity (Mus musculus [8]): Active; Activity (Mus musculus [9]): Active; Activity (Mus musculus [10]): Active; Activity (Mus musculus [11]): Active
O=S(=O)(c1ccccc1)n1cc(-c2ccc3[nH]c(-c4ccc(OC(F)F)c(OCC5CC5)c4)nc3c2)c2ccccc21,25.8,–
O=C(ON1C(=O)CCC1=O)c1ccc2[nH]c(-c3ccc(OC(F)F)c(OCC4CC4)c3)nc2c1,62.2,–
O=C(NCc1ncccn1)c1ccc2[nH]c(-c3ccc(OC(F)F)c(OCC4CC4)c3)nc2c1,62.3,–
COc1cc2c(cc1OC)-c1c/c(=N\c3c(C)cc(C)cc3C)n(CCNC(N)=O)c(=O)n1CC2 [ENSIFENTRINE],–,IC50 [12]: 0.4 nM; IC50 (Phosphodiesterase 4): 1479 nM
O=C(Nc1nccs1)c1cccc2[nH]c(-c3ccc(OC(F)F)c(OC(F)F)c3)nc12,68,–
O=C(Nc1ccncc1)c1ccc2[nH]c(-c3ccc(OC(F)F)c(OCC4CC4)c3)nc2c1,62.3,–

# Continued, in another order:
inhibition [1] [%],Compound,also measured
79.3,O=C(Nc1ccc2ncsc2c1)c1cccc2[nH]c(-c3ccc(OC(F)F)c(OCC4CC4)c3)nc12,–
93.4,COc1ccc(CNC(=O)c2cccc3[nH]c(-c4ccc(OC(F)F)c(OCC5CC5)c4)nc23)cn1,Activity (RAW264.7): Non-toxic
82.4,O=C(NCc1cc(F)cc(F)c1)c1cccc2[nH]c(-c3ccc(OC(F)F)c(OCC4CC4)c3)nc12,–
85.2,O=C(NCc1ccccc1F)c1cccc2[nH]c(-c3ccc(OC(F)F)c(OCC4CC4)c3)nc12,–
24.8,O=C(NCc1ccc(F)cc1F)c1ccc2[nH]c(-c3ccc(OC(F)F)c(OCC4CC4)c3)nc2c1,–
90.1,O=C(Nc1cccnc1)c1cccc2[nH]c(-c3ccc(OC(F)F)c(OCC4CC4)c3)nc12,Activity (HepG2): Non-toxic; Activity (RAW264.7): Non-toxic
90.1,O=C(NCc1ccc2ccccc2c1)c1cccc2[nH]c(-c3ccc(OC(F)F)c(OCC4CC4)c3)nc12,Activity (HepG2): Non-toxic; Activity (RAW264.7): Non-toxic
91.9,O=C(NCc1cccc(F)c1F)c1cccc2[nH]c(-c3ccc(OC(F)F)c(OCC4CC4)c3)nc12,Activity (RAW264.7): Non-toxic; Activity (HEK-293T): > 70%
94.1,Cn1ccc(NC(=O)c2cccc3[nH]c(-c4ccc(OC(F)F)c(OCC5CC5)c4)nc23)n1,–
81.6,O=C(Nc1ccccn1)c1cccc2[nH]c(-c3ccc(OC(F)F)c(OCC4CC4)c3)nc12,–
93.6,Cn1cc(NC(=O)c2cccc3[nH]c(-c4ccc(OC(F)F)c(OCC5CC5)c4)nc23)cn1,Activity (HepG2): Non-toxic; Activity (RAW264.7): Non-toxic
83.8,O=C(Nc1ccccc1)c1cccc2[nH]c(-c3ccc(OC(F)F)c(OCC4CC4)c3)nc12,–
93.5,O=C(Nc1ccc2[nH]ccc2c1)c1cccc2[nH]c(-c3ccc(OC(F)F)c(OCC4CC4)c3)nc12,Activity (HepG2): Non-toxic; Activity (RAW264.7): Non-toxic
65.6,O=C(Nc1ccncc1)c1cccc2[nH]c(-c3ccc(OC(F)F)c(OCC4CC4)c3)nc12,–
56.8,Cc1nc2ccc(NC(=O)c3cccc4[nH]c(-c5ccc(OC(F)F)c(OCC6CC6)c5)nc34)cc2s1,–
88.6,O=C(NCc1c(F)cc(F)cc1F)c1cccc2[nH]c(-c3ccc(OC(F)F)c(OCC4CC4)c3)nc12,–
93.3,O=C(NCc1cnccn1)c1cccc2[nH]c(-c3ccc(OC(F)F)c(OCC4CC4)c3)nc12,–
92.2,O=C(NCc1ccccc1)c1cccc2[nH]c(-c3ccc(OC(F)F)c(OCC4CC4)c3)nc12,Activity (RAW264.7): Non-toxic; Activity (HEK-293T): > 70%
94.4,O=C(NCc1c(F)cccc1F)c1cccc2[nH]c(-c3ccc(OC(F)F)c(OCC4CC4)c3)nc12,Activity (RAW264.7): Non-toxic; Activity (HEK-293T): > 70%
91.1,O=C(NCc1cccnc1)c1cccc2[nH]c(-c3ccc(OC(F)F)c(OCC4CC4)c3)nc12,Activity (RAW264.7): Non-toxic
88.8,O=C(NCc1cc(F)ccc1F)c1cccc2[nH]c(-c3ccc(OC(F)F)c(OCC4CC4)c3)nc12,–
90.6,O=C(NCc1ccc(F)c(F)c1)c1cccc2[nH]c(-c3ccc(OC(F)F)c(OCC4CC4)c3)nc12,Activity (RAW264.7): Non-toxic; Activity (HEK-293T): > 70%
94,O=C(NCc1ccc(F)cc1F)c1cccc2[nH]c(-c3ccc(OC(F)F)c(OCC4CC4)c3)nc12,Activity (RAW264.7): Non-toxic; Activity (HEK-293T): > 70%
95.5,O=C(NCc1ncccn1)c1cccc2[nH]c(-c3ccc(OC(F)F)c(OCC4CC4)c3)nc12,–
53.1,O=C(Nc1nc2ccccc2s1)c1cccc2[nH]c(-c3ccc(OC(F)F)c(OCC4CC4)c3)nc12,–
93.9,O=C(NCc1ccccn1)c1cccc2[nH]c(-c3ccc(OC(F)F)c(OCC4CC4)c3)nc12,Activity (RAW264.7): Non-toxic
